This is an account of results in ChEMBL document CHEMBL6087449, “Identification of an Isoxazole Derivative as an Antitubercular Compound for Targeting the FadD Enzymes of Mycobacterium tuberculosis” (J Med Chem, 2025).

≈ marks a conversion by molar mass, not a printed value.

The test relates to Mycobacterium tuberculosis. Description: Antitubercular activity against Mycobacterium tuberculosis H37Rv assessed as inhibition of bacterial growth incubated for 5 days by Alamar Blue based assay. The format is functional, organism-based. The conditions noted are these: 120 h. In general terms: The colour change of resazurin is a common sign of viable cells or microbes.

By IC50 is commonly meant the concentration that gives 50% inhibition. As for `Cc1ccc(O)c(-c2cc(C(F)(F)F)no2)c1`, the IC50 is 10.5 µg/mL (≈ 43.2 µM).
Under `Oc1ccccc1-c1cc(C(F)(F)F)no1` stands 11.7 µg/mL (≈ 51.1 µM).
